Assay results from ChEMBL document CHEMBL3991601, “The target landscape of clinical kinase drugs” (Science, 2017).
Activity calls are given as the source filed them. Cut-off read from the data, not from the text of the source, for most assays here: actives have a measured Kd and inactives only a lower limit.

Key:
Aurora kinase A = target: T1, Aurora kinase A (Homo sapiens, UniProt O14965)
T1 sequence (O14965 whole entry): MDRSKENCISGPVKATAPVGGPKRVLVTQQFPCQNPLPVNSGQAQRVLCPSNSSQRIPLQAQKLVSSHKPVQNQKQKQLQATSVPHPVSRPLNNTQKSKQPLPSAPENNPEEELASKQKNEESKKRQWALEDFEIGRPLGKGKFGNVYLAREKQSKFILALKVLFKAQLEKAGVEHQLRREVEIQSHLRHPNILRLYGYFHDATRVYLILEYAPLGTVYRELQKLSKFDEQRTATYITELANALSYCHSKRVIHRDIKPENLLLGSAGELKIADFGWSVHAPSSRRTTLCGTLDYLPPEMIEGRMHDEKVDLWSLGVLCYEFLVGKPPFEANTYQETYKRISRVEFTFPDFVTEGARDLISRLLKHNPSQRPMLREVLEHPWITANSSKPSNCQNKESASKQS

[1] = target: Serine/threonine-protein kinase MRCK beta (Homo sapiens, UniProt Q9Y5S2)
Chain of Serine/threonine-protein kinase MRCK beta (Q9Y5S2 whole entry): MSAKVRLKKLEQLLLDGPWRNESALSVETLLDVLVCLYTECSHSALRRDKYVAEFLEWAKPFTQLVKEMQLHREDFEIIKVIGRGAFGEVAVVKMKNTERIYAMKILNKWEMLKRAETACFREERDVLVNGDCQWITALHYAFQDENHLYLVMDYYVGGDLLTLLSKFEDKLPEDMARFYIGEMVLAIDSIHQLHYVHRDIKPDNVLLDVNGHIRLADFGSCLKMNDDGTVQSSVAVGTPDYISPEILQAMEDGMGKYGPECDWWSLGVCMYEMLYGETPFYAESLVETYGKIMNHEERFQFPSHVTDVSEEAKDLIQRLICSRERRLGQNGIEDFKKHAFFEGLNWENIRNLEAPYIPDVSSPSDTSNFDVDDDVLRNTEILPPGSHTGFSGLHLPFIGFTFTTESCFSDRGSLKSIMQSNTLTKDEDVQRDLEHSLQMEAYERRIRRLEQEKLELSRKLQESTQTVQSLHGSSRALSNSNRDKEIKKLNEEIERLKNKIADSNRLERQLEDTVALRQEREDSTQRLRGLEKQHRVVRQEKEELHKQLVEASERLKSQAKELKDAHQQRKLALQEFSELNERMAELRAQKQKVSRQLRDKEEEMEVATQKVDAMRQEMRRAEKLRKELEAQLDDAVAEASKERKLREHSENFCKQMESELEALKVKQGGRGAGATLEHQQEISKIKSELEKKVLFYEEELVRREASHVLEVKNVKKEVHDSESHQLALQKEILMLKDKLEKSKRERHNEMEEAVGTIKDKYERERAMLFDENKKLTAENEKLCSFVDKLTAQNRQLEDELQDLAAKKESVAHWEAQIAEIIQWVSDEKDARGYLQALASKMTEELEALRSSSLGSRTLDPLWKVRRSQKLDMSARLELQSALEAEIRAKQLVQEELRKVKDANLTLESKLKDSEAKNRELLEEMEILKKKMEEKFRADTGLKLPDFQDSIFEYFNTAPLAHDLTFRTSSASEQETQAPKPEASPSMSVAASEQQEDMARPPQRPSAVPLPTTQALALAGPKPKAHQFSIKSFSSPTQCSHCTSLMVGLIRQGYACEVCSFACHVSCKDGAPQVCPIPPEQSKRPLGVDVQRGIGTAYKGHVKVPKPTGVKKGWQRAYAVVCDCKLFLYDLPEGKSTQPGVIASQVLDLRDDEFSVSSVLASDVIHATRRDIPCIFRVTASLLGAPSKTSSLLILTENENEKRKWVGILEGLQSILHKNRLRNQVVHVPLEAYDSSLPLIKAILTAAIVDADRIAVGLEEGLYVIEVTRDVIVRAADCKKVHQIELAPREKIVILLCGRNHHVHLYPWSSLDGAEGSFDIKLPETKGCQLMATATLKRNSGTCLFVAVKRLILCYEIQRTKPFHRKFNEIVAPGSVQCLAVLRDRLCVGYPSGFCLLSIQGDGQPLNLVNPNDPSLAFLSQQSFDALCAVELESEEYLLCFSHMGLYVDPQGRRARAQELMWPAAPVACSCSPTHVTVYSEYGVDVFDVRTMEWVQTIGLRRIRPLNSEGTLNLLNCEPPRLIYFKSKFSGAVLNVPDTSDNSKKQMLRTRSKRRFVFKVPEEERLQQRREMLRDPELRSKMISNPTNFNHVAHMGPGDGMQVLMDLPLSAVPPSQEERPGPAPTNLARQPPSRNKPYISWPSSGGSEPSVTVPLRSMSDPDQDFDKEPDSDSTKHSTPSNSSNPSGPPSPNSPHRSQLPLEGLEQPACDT

[2] = target: Fibroblast growth factor receptor 1 (Homo sapiens, UniProt P11362)
[3] = target: Putative heat shock protein HSP 90-beta 2 (Homo sapiens, UniProt Q58FF8)
Chain of Putative heat shock protein HSP 90-beta 2 (Q58FF8 whole entry): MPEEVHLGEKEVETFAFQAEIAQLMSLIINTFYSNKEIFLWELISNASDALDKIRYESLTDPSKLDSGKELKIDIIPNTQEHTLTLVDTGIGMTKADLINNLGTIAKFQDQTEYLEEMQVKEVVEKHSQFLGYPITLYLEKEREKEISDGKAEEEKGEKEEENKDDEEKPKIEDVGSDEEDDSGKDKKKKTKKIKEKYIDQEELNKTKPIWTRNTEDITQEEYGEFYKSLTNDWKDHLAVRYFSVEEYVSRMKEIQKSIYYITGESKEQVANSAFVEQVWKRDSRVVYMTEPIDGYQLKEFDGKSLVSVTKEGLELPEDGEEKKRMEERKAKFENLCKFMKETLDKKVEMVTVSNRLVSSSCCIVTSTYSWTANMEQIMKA

[4] = target: Interleukin-1 receptor-associated kinase 1 (Homo sapiens, UniProt P51617)
[5] = target: T2, Interleukin-1 receptor-associated kinase 4 (Homo sapiens, UniProt Q9NWZ3)
T2 sequence (Q9NWZ3 whole entry): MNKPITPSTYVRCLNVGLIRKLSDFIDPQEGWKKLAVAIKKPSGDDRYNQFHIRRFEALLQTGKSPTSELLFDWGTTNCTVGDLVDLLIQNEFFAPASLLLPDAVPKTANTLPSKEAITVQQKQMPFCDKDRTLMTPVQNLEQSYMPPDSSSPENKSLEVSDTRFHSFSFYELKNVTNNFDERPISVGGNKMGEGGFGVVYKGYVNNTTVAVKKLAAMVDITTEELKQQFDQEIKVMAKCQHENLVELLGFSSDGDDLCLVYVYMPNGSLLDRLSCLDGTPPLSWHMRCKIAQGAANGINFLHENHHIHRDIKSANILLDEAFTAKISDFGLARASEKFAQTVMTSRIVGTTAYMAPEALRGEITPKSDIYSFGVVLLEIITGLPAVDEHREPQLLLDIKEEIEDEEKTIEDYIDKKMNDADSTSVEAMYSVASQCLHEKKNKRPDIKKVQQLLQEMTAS

LIM domain kinase 1 = LIM domain kinase 1 (Homo sapiens, UniProt P53667)
Chain of LIM domain kinase 1 (P53667 whole entry, the tested form may be a part): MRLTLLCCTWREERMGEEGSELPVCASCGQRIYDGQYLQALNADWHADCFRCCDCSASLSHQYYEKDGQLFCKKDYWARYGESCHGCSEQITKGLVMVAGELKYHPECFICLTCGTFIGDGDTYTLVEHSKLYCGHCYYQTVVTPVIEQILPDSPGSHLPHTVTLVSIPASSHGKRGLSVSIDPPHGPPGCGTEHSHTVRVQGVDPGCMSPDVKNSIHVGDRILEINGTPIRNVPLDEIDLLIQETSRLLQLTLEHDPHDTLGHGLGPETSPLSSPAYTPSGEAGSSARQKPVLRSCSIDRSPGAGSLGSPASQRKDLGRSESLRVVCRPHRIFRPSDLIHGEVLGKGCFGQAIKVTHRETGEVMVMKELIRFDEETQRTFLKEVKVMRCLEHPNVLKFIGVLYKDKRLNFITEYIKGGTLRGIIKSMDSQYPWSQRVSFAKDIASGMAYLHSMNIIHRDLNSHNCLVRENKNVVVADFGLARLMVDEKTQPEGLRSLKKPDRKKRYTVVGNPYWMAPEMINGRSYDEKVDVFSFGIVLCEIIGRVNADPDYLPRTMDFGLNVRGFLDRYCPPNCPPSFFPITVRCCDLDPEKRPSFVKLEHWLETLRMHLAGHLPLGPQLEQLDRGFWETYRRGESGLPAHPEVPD

[6] = target: Dual specificity mitogen-activated protein kinase kinase 2 (Homo sapiens, UniProt P36507)
Chain of Dual specificity mitogen-activated protein kinase kinase 2 (P36507 whole entry): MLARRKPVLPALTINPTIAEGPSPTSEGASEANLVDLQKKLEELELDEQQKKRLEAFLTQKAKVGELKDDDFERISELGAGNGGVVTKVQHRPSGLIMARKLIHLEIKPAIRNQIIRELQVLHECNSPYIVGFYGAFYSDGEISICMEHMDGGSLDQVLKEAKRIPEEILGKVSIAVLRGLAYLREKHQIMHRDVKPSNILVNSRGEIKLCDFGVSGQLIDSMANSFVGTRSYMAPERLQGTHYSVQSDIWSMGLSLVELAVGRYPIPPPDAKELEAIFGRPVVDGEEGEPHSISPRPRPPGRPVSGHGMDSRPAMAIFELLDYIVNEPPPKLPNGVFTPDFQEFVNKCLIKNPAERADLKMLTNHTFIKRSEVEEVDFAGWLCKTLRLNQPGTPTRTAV

[7] = target: Mitogen-activated protein kinase 11 (Homo sapiens, UniProt Q15759)
Chain of Mitogen-activated protein kinase 11 (Q15759 whole entry): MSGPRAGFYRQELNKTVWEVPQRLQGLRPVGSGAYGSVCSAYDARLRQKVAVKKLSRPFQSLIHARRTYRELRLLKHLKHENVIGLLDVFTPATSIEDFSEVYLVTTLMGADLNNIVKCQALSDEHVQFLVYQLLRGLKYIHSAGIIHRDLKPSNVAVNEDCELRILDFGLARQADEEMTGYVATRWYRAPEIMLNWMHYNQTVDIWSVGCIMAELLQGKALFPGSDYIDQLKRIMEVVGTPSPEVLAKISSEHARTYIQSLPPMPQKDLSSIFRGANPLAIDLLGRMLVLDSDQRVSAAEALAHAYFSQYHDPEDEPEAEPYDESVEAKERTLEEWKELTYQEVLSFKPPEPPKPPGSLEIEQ

[8] = target: T3, Serine/threonine-protein kinase Nek3 (Homo sapiens, UniProt P51956)
T3 sequence (P51956 whole entry): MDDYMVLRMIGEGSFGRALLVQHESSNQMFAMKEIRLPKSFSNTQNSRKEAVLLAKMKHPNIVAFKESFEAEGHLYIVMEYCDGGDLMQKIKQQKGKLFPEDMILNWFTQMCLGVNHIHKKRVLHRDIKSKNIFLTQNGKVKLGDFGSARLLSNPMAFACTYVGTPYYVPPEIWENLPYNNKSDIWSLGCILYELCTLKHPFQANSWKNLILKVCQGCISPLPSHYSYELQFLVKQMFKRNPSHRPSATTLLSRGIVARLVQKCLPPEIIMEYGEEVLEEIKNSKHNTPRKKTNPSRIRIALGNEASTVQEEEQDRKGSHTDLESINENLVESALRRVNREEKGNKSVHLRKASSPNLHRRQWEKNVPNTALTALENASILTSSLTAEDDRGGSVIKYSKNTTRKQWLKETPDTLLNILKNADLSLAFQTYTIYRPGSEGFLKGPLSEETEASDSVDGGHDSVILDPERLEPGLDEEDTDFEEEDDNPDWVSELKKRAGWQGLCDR

[9] = target: T4, Bifunctional phosphoribosylaminoimidazole carboxylase/phosphoribosylaminoimidazole succinocarboxamide synthetase (Homo sapiens, UniProt P22234)
T4 sequence (P22234 whole entry): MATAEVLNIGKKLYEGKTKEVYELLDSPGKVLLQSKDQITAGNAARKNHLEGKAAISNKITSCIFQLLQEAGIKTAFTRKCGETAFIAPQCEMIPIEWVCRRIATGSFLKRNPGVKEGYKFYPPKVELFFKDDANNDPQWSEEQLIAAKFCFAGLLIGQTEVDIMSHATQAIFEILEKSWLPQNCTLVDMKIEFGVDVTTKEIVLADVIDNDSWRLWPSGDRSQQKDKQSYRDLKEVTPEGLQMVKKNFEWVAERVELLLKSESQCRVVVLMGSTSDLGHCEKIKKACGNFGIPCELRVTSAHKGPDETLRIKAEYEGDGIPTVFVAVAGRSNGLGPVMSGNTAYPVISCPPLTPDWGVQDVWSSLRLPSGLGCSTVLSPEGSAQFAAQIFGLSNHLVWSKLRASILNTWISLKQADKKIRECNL

[10] = target: T5, Ras-related protein Rab-27A (Homo sapiens, UniProt P51159)
T5 sequence (P51159 whole entry): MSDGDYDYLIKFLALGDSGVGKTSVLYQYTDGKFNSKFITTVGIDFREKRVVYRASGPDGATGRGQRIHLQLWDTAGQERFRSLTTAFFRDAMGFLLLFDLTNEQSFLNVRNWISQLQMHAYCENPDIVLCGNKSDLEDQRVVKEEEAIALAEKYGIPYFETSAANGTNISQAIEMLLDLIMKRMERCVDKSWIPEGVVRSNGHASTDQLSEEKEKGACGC

[11] = target: Proto-oncogene tyrosine-protein kinase Src (Homo sapiens, UniProt P12931)
Chain of Proto-oncogene tyrosine-protein kinase Src (P12931 2-536 limits assumed): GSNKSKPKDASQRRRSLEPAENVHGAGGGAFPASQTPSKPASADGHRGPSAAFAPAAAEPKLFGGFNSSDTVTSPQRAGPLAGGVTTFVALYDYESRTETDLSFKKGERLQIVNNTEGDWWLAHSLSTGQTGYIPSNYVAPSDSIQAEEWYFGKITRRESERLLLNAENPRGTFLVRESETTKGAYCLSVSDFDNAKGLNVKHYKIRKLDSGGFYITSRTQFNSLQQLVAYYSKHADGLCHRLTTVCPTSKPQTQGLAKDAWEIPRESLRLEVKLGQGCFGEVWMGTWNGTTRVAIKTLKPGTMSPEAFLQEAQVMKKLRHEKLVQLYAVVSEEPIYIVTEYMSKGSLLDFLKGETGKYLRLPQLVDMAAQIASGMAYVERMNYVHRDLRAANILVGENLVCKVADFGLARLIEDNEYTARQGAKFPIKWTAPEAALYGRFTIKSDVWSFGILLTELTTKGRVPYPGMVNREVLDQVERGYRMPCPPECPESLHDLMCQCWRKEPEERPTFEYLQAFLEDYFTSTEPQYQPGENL

[12] = target: Tyrosine-protein kinase Yes (Homo sapiens, UniProt P07947)
Chain of Tyrosine-protein kinase Yes (P07947 whole entry): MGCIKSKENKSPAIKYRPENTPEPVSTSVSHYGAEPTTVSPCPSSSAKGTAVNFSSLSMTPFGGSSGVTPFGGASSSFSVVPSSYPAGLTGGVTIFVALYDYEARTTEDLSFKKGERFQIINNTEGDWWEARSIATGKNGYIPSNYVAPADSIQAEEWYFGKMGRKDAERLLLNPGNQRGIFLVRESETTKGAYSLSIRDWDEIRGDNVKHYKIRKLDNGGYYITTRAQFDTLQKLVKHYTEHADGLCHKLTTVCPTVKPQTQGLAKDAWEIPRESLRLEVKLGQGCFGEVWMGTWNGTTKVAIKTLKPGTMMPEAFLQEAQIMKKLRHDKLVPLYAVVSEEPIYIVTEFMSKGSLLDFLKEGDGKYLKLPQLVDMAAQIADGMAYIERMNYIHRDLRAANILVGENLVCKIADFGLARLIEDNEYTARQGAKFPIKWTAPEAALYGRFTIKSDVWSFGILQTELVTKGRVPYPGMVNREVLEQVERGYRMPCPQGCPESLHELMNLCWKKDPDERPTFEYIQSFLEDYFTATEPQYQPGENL

Measured: Kd
Note: in the data inactive means no Kd found up to 30 µM.

CO[C@H]1C[C@@H]2CC[C@@H](C)[C@@](O)(O2)C(=O)C(=O)N2CCCC[C@H]2C(=O)O[C@H]([C@H](C)C[C@@H]2CC[C@@H](OC(=O)C(C)(CO)CO)[C@H](OC)C2)CC(=O)[C@H](C)/C=C(\C)[C@@H](O)[C@@H](OC)C(=O)[C@H](C)C[C@H](C)/C=C/C=C/C=C/1C [TEMSIROLIMUS]
inactive: Aurora kinase A > 30 µM | [1] > 30 µM | [2] > 30 µM | [3] > 30 µM | [4] > 30 µM | [5] > 30 µM | LIM domain kinase 1 > 30 µM | [6] > 30 µM | [7] > 30 µM | [8] > 30 µM | [9] > 30 µM | [10] > 30 µM | [11] > 30 µM | [12] > 30 µM

COc1cc2c(Nc3ccc(Cl)c(Cl)c3F)ncnc2cc1OC[C@@H]1C[C@@H]2CN(C)C[C@@H]2C1 [TESEVATINIB]
active: [5] 1.17 µM | [11] 1.13 µM | [12] 3.94 µM
inactive: Aurora kinase A > 30 µM | [1] > 30 µM | [2] > 30 µM | [3] > 30 µM | [4] > 30 µM | LIM domain kinase 1 > 30 µM | [6] > 30 µM | [7] > 30 µM | [8] > 30 µM | [9] > 30 µM | [10] > 30 µM

O=C(Cc1ccc(-c2ccc(OCCN3CCOCC3)cc2)cn1)NCc1ccccc1 [TIRBANIBULIN]
inactive: Aurora kinase A > 30 µM | [1] > 30 µM | [2] > 30 µM | [3] > 30 µM | [4] > 30 µM | [5] > 30 µM | LIM domain kinase 1 > 30 µM | [6] > 30 µM | [7] > 30 µM | [8] > 30 µM | [9] > 30 µM | [10] > 30 µM | [11] > 30 µM | [12] > 30 µM

O=C1NC(=O)[C@@H](c2cn3c4c(cccc24)CCC3)[C@@H]1c1c[nH]c2ccccc12 [TIVANTINIB]
inactive: Aurora kinase A > 30 µM | [1] > 30 µM | [2] > 30 µM | [3] > 30 µM | [4] > 30 µM | [5] > 30 µM | LIM domain kinase 1 > 30 µM | [6] > 30 µM | [7] > 30 µM | [8] > 30 µM | [9] > 30 µM | [10] > 30 µM | [11] > 30 µM | [12] > 30 µM

C[C@@H](NC(=O)c1ncnc(N)c1Cl)c1ncc(C(=O)Nc2cc(C(F)(F)F)c(Cl)cn2)s1 [TOVORAFENIB]
inactive: Aurora kinase A > 30 µM | [1] > 30 µM | [2] > 30 µM | [3] > 30 µM | [4] > 30 µM | [5] > 30 µM | [6] > 30 µM | [8] > 30 µM | [9] > 30 µM | [10] > 30 µM | [11] > 30 µM | [12] > 30 µM
active: LIM domain kinase 1 1.02 µM | [7] 0.684 µM

Cc1cc(Nc2ncnc3ccc(NC4=NC(C)(C)CO4)cc23)ccc1Oc1ccn2ncnc2c1 [TUCATINIB]
inactive: Aurora kinase A > 30 µM | [1] > 30 µM | [2] > 30 µM | [3] > 30 µM | [4] > 30 µM | [5] > 30 µM | LIM domain kinase 1 > 30 µM | [6] > 30 µM | [7] > 30 µM | [8] > 30 µM | [9] > 30 µM | [10] > 30 µM | [11] > 30 µM | [12] > 30 µM

Cn1ncc(Cl)c1-c1cc(C(=O)N[C@H](CN)Cc2ccc(F)c(F)c2)oc1Cl [UPROSERTIB]
inactive: Aurora kinase A > 30 µM | [1] > 30 µM | [2] > 30 µM | [3] > 30 µM | [4] > 30 µM | [5] > 30 µM | LIM domain kinase 1 > 30 µM | [6] > 30 µM | [7] > 30 µM | [8] > 30 µM | [9] > 30 µM | [10] > 30 µM | [11] > 30 µM | [12] > 30 µM

CC(C)c1cc(CNc2nc(Nc3cc(C4CC4)[nH]n3)cc(N3CCN(C)CC3)n2)on1 [XL-228]
4.21 µM: [6]
inactive: [1] > 30 µM | [3] > 30 µM | [4] > 30 µM | [5] > 30 µM | [7] > 30 µM | [8] > 30 µM | [9] > 30 µM | [10] > 30 µM
active: Aurora kinase A 0.003 µM | [2] 0.009 µM | LIM domain kinase 1 2.07 µM | [11] 0.459 µM | [12] 0.171 µM

C[C@@H](N)c1ccc(C(=O)Nc2ccnc3[nH]ccc23)cc1 [Y-39983]
inactive: Aurora kinase A > 30 µM | [2] > 30 µM | [3] > 30 µM | [4] > 30 µM | [5] > 30 µM | LIM domain kinase 1 > 30 µM | [6] > 30 µM | [7] > 30 µM | [8] > 30 µM | [9] > 30 µM | [10] > 30 µM | [11] > 30 µM | [12] > 30 µM
active: [1] 0.034 µM

CN1C/C=C/CCOc2cccc(c2)-c2ccnc(n2)Nc2cccc(c2)C1 [ZOTIRACICLIB]
46.9 µM: [1]
inactive: Aurora kinase A > 30 µM | [2] > 30 µM | [3] > 30 µM | [4] > 30 µM | [5] > 30 µM | LIM domain kinase 1 > 30 µM | [6] > 30 µM | [7] > 30 µM | [8] > 30 µM | [9] > 30 µM | [10] > 30 µM | [11] > 30 µM | [12] > 30 µM
